The values below come from patent publication US4567198A, “Ethanethioates and mercaptoamides and use thereof as analgesic and enkephalinase inhibitory compounds” (Roussel Uclaf, priority 1983, dated 1986).

Each structure is given as a SMILES string.

This experiment addresses T1, Enkephalinase (Rattus norvegicus, UniProt P07861).
T1 construct: from tissue; host or cells: rat striatum, membrane fraction (20,000 g pellet)
T1 sequence (P07861 1-750): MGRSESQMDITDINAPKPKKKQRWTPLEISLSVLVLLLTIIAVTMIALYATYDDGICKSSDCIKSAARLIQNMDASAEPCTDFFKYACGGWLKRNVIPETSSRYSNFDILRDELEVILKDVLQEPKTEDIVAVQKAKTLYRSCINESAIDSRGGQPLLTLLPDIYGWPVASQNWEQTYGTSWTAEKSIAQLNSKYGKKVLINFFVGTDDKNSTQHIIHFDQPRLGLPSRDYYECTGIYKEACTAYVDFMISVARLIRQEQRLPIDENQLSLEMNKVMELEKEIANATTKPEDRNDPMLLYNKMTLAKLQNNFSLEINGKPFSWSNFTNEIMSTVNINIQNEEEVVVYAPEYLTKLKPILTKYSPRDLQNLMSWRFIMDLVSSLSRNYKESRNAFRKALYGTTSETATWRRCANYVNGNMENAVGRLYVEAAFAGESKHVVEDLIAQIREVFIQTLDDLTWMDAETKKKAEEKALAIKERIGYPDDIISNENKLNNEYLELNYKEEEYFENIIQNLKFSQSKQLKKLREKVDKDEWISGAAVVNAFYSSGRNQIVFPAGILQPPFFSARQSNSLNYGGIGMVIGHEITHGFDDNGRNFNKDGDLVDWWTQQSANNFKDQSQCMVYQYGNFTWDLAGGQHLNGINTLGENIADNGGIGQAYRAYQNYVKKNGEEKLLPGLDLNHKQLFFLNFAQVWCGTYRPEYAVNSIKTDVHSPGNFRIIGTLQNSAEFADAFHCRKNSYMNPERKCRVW
The experiment in a line: Inhibition of enkephalinase in rat striatum membrane fraction (hydrolysis of tritiated leucine-enkephaline). The experiment is classed as biochemical. To be noted: striatum membrane fraction of rats; 20 nanomoles tritiated leucine-enkephaline, 1 mM puromycin, 25° C., 15 minutes, Tris pH 7.4; read-out: Enkephalinase inhibition CI50. The method, then:
Enkephalinase activity was determined in a striatum membrane fraction of rats. The straitum was placed in ice and was homogenized in buffered 0.05M Tris with a pH of 7.4 (20 times the volume) and after a first centrifugation at 1000 g, the particular fraction obtained was subjected to two centrifugations for 10 minutes at 20,000 g. The culot was then suspended in buffered Tris and kept at 4° C. The amount of proteins was determined by the Comassie blue method.
After preincubation at 25° C. for 15 minutes, an aliquot of proteins was incubated at 25° C. for 15 minutes in the presence of 20 nanomoles of tritiated leucine-enkephaline (against the first amino acid) previously purified, of 1 mM of puromycin and the test product in buffered Tris. The hydrolysis reaction was stopped by addition of 0.2N hydrochloric acid and the icubate was subjected to a deproteinization by heating at 95° C. for 15 minutes. Under these conditions, the kinetic reaction was linear. The tritiated metabolites obtained by hydrolysis were separated from enkephaline by chromatography over a column of porapak Q and elution with buffered Tris whereby enkephaline was retained in the column and was released in the following ethanolic phase. The activity of the different products was expressed in 50% inhibiting concentration called CI50 in Table I.
As to `CC(=O)SCC(=O)Nc1nccs1` [Ethanethioate of S-[2-(2-thiazolylamino)-2-oxo-ethyl]], the IC50 came to 130 µM.

For the compound `O=C(CS)Nc1ccc(Cl)cc1` [N--(4-chlorophenyl)-2-mercapto-acetamide, N-(4-chlorophenyl)-2-mercapto-acetamide], the IC50 is 5 µM.

For `O=C(CS)Nc1ccccc1` [N--phenyl-2-mercapto-acetamide, N-phenyl-2-mercapto-acetamide], the IC50 was 3 µM.

Regarding `O=C(CS)Nc1nccs1` [N--(2-thiazolyl)-2-mercapto-acetamide, N-(2-thiazolyl)-2-mercapto-acetamide], the IC50 was determined as 30 µM.

Take `O=C(CCS)Nc1ccccc1` [N--phenyl-3-mercapto-propanamide, N-phenyl-3-mercapto-propanamide]: the IC50 was found to be 40 µM.

As to `CC(=O)SCC(=O)Nc1ccc(Cl)cc1` [Ethanethioate of S-[2-(4-chlorophenylamino)-2-oxo-ethyl]], the IC50 amounted to 6 µM.
